Test results: patent US8492310B2, “Herbicidal compositions containing benzoylpyrazole compounds” (priority 2008, dated 2013)
Read-outs that look alike come from different tables or passages of the source.

Experiments:
Assay type in all cases: in vivo
[1] = test system: crabgrass (Digitaria sanguinalis L.); experiment: Foliar treatment pot test, visual growth inhibition rate, crabgrass (DS)
From the text: (§1) When the herbicidal activity in a case where two active ingredients are combined, is larger than the simple sum of the respective herbicidal activities of the two active ingredients (the expected activity), it is called a synergistic effect. The activity expected by the combination of two active ingredients can be calculated as follows (Colby S. R., “Weed”, vol. 15, p. 20-22, 1967). E=α+β−(α×β÷100) where
(§2) Upland field soil was put into a 1/1,000,000 hectare pot, and seeds of various plants (barnyardgrass (Echinochloa crus-qalli L.), crabgrass (Digitaria sanguinalis L.), giant foxtail (Setaria faberi Herrm.), velvetleaf (Abutilon theophrasti MEDIC.) and prickly sida (Sida spinosa L.)) were sown. When the respective plants reached predetermined leaf stage, herbicidal compositions in predetermined amounts were diluted with water in an amount corresponding to 300 L/ha and applied for foliar treatment by a small sprayer.
(§3) Further, in accordance with the above Colby's formula, the growth inhibition rate (calculated value) was calculated. In Tables, with respect to the compound Q, Compound Nos. in Table 1 are described, and with respect to other herbicidal compounds, common names are described. Further, in Tables, barnyardgrass is represented by “EC”, crabgrass by “DS”, giant foxtail by “SF”, velvetleaf by “AT”, and prickly sida by “SS”.

[2] = test system: velvetleaf (Abutilon theophrasti MEDIC.); experiment: Foliar treatment pot test, visual growth inhibition rate, velvetleaf (AT)
From the text: as §1, §2, §3

[3] = test system: prickly sida (Sida spinosa L.); experiment: Foliar treatment pot test, visual growth inhibition rate, prickly sida (SS); conditions: for inhibition at 15 g/ha: 1.5-2.4 leaf stage
From the text: as §1, §2, §3

[4] = test system: barnyardgrass (Echinochloa crus-qalli L.); experiment: Foliar treatment pot test, visual growth inhibition rate, barnyardgrass (EC); conditions: 4.0-5.0 leaf stage, read-out: Growth inhibition rate (%) of EC Measured value
From the text: as §1, §2, §3

[5] = Digitaria sanguinalis, foliar, 552 h, 4.5-5.3 leaf stage, 23 DAT, read-out: Growth inhibition rate (%) of DS Measured value
[6] = Abutilon theophrasti, foliar, 552 h, 3.0-4.2 leaf stage, 23 DAT, read-out: Growth inhibition rate (%) of AT Measured value
[7] = Digitaria sanguinalis, foliar, 480 h, 4.5-5.2 leaf stage, 20 DAT, read-out: Growth inhibition rate (%) of DS Measured value
[8] = Abutilon theophrasti, foliar, 480 h, 4.2-4.3 leaf stage, 20 DAT, read-out: Growth inhibition rate (%) of AT Measured value
[9] = Digitaria sanguinalis, foliar, 480 h, 3.7-4.0 leaf stage, 20 DAT, read-out: Growth inhibition rate (%) of DS Measured value
[10] = Abutilon theophrasti, foliar, 480 h, 4.0-4.2 leaf stage, 20 DAT, read-out: Growth inhibition rate (%) of AT Measured value
[11] = Abutilon theophrasti, foliar, 528 h, 3.3-3.8 leaf stage, 22 DAT, read-out: Growth inhibition rate (%) of AT Measured value

CCCCCCCC(=O)Oc1c(Br)cc(C#N)cc1Br [Bromoxynil-octanoate, bromoxynil-octanoate]
inhibition at 63 g/ha ([1]; Digitaria sanguinalis, foliar, 336 h, 4.0-5.0 leaf stage, 14 DAT, read-out: Growth inhibition rate (%) of DS Measured value): 0% | inhibition at 63 g/ha ([1]; Digitaria sanguinalis, foliar, 504 h, 4.0-5.1 leaf stage, 21 DAT, read-out: Growth inhibition rate (%) of DS Measured value): 0% | inhibition at 77 g/ha ([1]; Digitaria sanguinalis, foliar, 528 h, 3.1-4.0 leaf stage, 22 DAT, 77 g/ha, read-out: Growth inhibition rate (%) of DS Measured value): 0% | inhibition at 30 g/ha ([1]; Digitaria sanguinalis, foliar, 552 h, 4.5-5.3 leaf stage, 23 DAT, 30 g/ha, read-out: Growth inhibition rate (%) of DS Measured value): 25% | inhibition at 60 g/ha [1, 5]: 10% | inhibition at 120 g/ha [1, 5]: 45% | inhibition at 63 g/ha ([2]; Abutilon theophrasti, foliar, 504 h, 3.0-3.5 leaf stage, 21 DAT, 63 g/ha, read-out: Growth inhibition rate (%) of AT Measured value): 10% | inhibition at 100 g/ha ([2]; Abutilon theophrasti, foliar, 528 h, 4.0-4.3 leaf stage, 22 DAT, read-out: Growth inhibition rate (%) of AT Measured value): 25% | inhibition at 30 g/ha [2, 6]: 0% | inhibition at 60 g/ha [2, 6]: 0% | inhibition at 120 g/ha [2, 6]: 0% | inhibition at 200 g/ha ([2]; Abutilon theophrasti, foliar, 576 h, 3.2-4.1 leaf stage, 24 DAT, 200 g/ha, read-out: Growth inhibition rate (%) of AT Measured value): 100% | inhibition at 25 g/ha ([3]; Sida spinosa, foliar, 528 h, 3.0-3.3 leaf stage, 22 DAT, 25 g/ha, read-out: Growth inhibition rate (%) of SS Measured value): 40% | inhibition at 50 g/ha ([3]; Sida spinosa, foliar, 528 h, 3.0-3.3 leaf stage, 22 DAT, read-out: Growth inhibition rate (%) of SS Measured value): 50% | inhibition at 100 g/ha ([3]; Sida spinosa, foliar, 528 h, 3.0-3.3 leaf stage, 22 DAT, 100 g/ha, read-out: Growth inhibition rate (%) of SS Measured value): 50%

COc1c(Cl)ccc(Cl)c1C(=O)O [Dicamba, dicamba]
inhibition at 200 g/ha ([4]; 336 h, 14 DAT, 200 g/ha): 0% | inhibition at 100 g/ha ([1]; Digitaria sanguinalis, foliar, 312 h, 4.4-5.0 leaf stage, 13 DAT, read-out: Growth inhibition rate (%) of DS Measured value): 0% | inhibition at 25 g/ha [1, 7]: 0% | inhibition at 50 g/ha [1, 7]: 0% | inhibition at 100 g/ha [1, 7]: 0% | inhibition at 200 g/ha ([1]; Digitaria sanguinalis, foliar, 504 h, 5.0-5.5 leaf stage, 21 DAT, 200 g/ha, read-out: Growth inhibition rate (%) of DS Measured value): 0% | inhibition at 60 g/ha [1, 5]: 55% | inhibition at 120 g/ha [1, 5]: 75% | inhibition at 100 g/ha ([2]; Abutilon theophrasti, foliar, 312 h, 3.3-4.2 leaf stage, 13 DAT, read-out: Growth inhibition rate (%) of AT Measured value): 35% | inhibition at 25 g/ha [2, 8]: 25% | inhibition at 50 g/ha [2, 8]: 35% | inhibition at 100 g/ha [2, 8]: 43% | inhibition at 100 g/ha ([2]; Abutilon theophrasti, foliar, 504 h, 3.5-4.3 leaf stage, 21 DAT, read-out: Growth inhibition rate (%) of AT Measured value): 55% | inhibition at 60 g/ha [2, 6]: 0% | inhibition at 120 g/ha [2, 6]: 0%

CS(=O)(=O)c1ccc(C(=O)C2C(=O)CCCC2=O)c([N+](=O)[O-])c1 [Mesotrione]
inhibition at 15 g/ha ([4]; 504 h, 21 DAT, 15 g/ha): 5% | inhibition at 25 g/ha [1, 9]: 55% | inhibition at 50 g/ha [1, 9]: 83% | inhibition at 12.5 g/ha ([1]; Digitaria sanguinalis, foliar, 480 h, 5.1-5.2 leaf stage, 20 DAT, 12.5 g/ha, read-out: Growth inhibition rate (%) of DS Measured value): 80% | inhibition at 25 g/ha [2, 10]: 23% | inhibition at 50 g/ha [2, 10]: 35% | inhibition at 12.5 g/ha ([2]; Abutilon theophrasti, foliar, 480 h, 4.1-4.2 leaf stage, 20 DAT, 12.5 g/ha, read-out: Growth inhibition rate (%) of AT Measured value): 75% | inhibition at 25 g/ha ([2]; Abutilon theophrasti, foliar, 480 h, 4.1-4.2 leaf stage, 20 DAT, read-out: Growth inhibition rate (%) of AT Measured value): 94% | inhibition at 15 g/ha ([2]; Abutilon theophrasti, foliar, 576 h, 3.2-4.1 leaf stage, 24 DAT, read-out: Growth inhibition rate (%) of AT Measured value): 88%

COc1cc(OC)nc(NC(=O)NS(=O)(=O)c2ncccc2C(=O)N(C)C)n1 [Nicosulfuron, nicosulfuron]
inhibition at 5 g/ha ([1]; Digitaria sanguinalis, foliar, 336 h, 3.5-4.3 leaf stage, 14 DAT, 5 g/ha, read-out: Growth inhibition rate (%) of DS Measured value): 15% | inhibition at 10 g/ha ([1]; Digitaria sanguinalis, foliar, 504 h, 3.5 to 4.3 leaf stage, 21 DAT, 10 g/ha, read-out: Growth inhibition rate (%) of DS Measured value): 30% | inhibition at 20 g/ha ([1]; Digitaria sanguinalis, foliar, 504 h, 4.5-5.1 leaf stage, 21 DAT, 20 g/ha, read-out: Growth inhibition rate (%) of DS Measured value): 50% | inhibition at 80 g/ha ([1]; Digitaria sanguinalis, foliar, 504 h, 4.5-5.1 leaf stage, 21 DAT, 80 g/ha, read-out: Growth inhibition rate (%) of DS Measured value): 94% | inhibition at 5 g/ha ([2]; Abutilon theophrasti, foliar, 480 h, 3.1-3.4 leaf stage, 20 DAT, 5 g/ha, read-out: Growth inhibition rate (%) of AT Measured value): 10% | inhibition at 7 g/ha ([2]; Abutilon theophrasti, foliar, 504 h, 3.8-4.4 leaf stage, 21 DAT, read-out: Growth inhibition rate (%) of AT Measured value): 30% | inhibition at 40 g/ha ([2]; Abutilon theophrasti, foliar, 504 h, 4.0-4.5 leaf stage, 21 DAT, 40 g/ha, read-out: Growth inhibition rate (%) of AT Measured value): 65% | inhibition at 60 g/ha ([2]; Abutilon theophrasti, foliar, 504 h, 4.0-4.5 leaf stage, 21 DAT, read-out: Growth inhibition rate (%) of AT Measured value): 70% | inhibition at 80 g/ha ([2]; Abutilon theophrasti, foliar, 504 h, 4.0-4.5 leaf stage, 21 DAT, 80 g/ha, read-out: Growth inhibition rate (%) of AT Measured value): 83% | inhibition at 7 g/ha [2, 11]: 45% | inhibition at 15 g/ha [2, 11]: 60% | inhibition at 30 g/ha [2, 11]: 70% | inhibition at 10 g/ha ([2]; Abutilon theophrasti, foliar, 528 h, 4.0-4.4 leaf stage, 22 DAT, 10 g/ha, read-out: Growth inhibition rate (%) of AT Measured value): 40% | inhibition at 15 g/ha ([3]; Sida spinosa, foliar, 480 h, 20 DAT, read-out: Growth inhibition rate (%) of SS Measured value): 45% | inhibition at 15 g/ha ([3]; Sida spinosa, foliar, 504 h, 21 DAT, read-out: Growth inhibition rate (%) of SS Measured value): 45% | inhibition at […] ([3]; Sida spinosa, foliar, 504 h, 2.1 to 3.1 leaf stage, 21 DAT, 2.5 g/ha, read-out: Growth inhibition rate (%) of SS Measured value): 0% | inhibition at 5 g/ha ([3]; Sida spinosa, foliar, 504 h, 2.1 to 3.1 leaf stage, 21 DAT, 5 g/ha, read-out: Growth inhibition rate (%) of SS Measured value): 0% | inhibition at 10 g/ha ([3]; Sida spinosa, foliar, 504 h, 2.1 to 3.1 leaf stage, 21 DAT, 10 g/ha, read-out: Growth inhibition rate (%) of SS Measured value): 10% | inhibition at 20 g/ha ([3]; Sida spinosa, foliar, 504 h, 2.1 to 3.1 leaf stage, 21 DAT, 20 g/ha, read-out: Growth inhibition rate (%) of SS Measured value): 40% | inhibition at 30 g/ha ([3]; Sida spinosa, foliar, 504 h, 2.1 to 3.1 leaf stage, 21 DAT, 30 g/ha, read-out: Growth inhibition rate (%) of SS Measured value): 50% | inhibition at 50 g/ha ([3]; Sida spinosa, foliar, 504 h, 2.1 to 3.1 leaf stage, 21 DAT, read-out: Growth inhibition rate (%) of SS Measured value): 70%

CCc1cccc(C)c1N(C(=O)CCl)[C@@H](C)COC [S-Metolachlor, S-metolachlor]
Growth inhibition rate (%) of DS Measured value ([1]; 3.5-4.3 leaf stage, 21 DAT, 400 g/ha): 0% | Growth inhibition rate (%) of DS Measured value ([1]; 4.0-5.0 leaf stage, 14 DAT, 150 g/ha): 0% | Growth inhibition rate (%) of DS Measured value ([1]; 4.0-5.1 leaf stage, 21 DAT, 300 g/ha): 0% | Growth inhibition rate (%) of DS Measured value ([1]; 5.0-6.0 leaf stage, 14 DAT, 800 g/ha): 0% | Growth inhibition rate (%) of AT Measured value ([2]; 3.0-3.5 leaf stage, 21 DAT, 300 g/ha): 0% | Growth inhibition rate (%) of AT Measured value ([2]; 3.0-3.8 leaf stage, 21 DAT, 400 g/ha): 0% | Growth inhibition rate (%) of AT Measured value ([2]; 3.0-4.0 leaf stage, 14 DAT, 150 g/ha): 0% | Growth inhibition rate (%) of AT Measured value ([2]; 4.6-5.3 leaf stage, 14 DAT, 1200 g/ha): 0% | Growth inhibition rate (%) of SS Measured value ([3]; 3.0-3.3 leaf stage, 21 DAT, 800 g/ha): 20%
